{"source": "paper PMC12587574", "about": "“Mass balance, pharmacokinetics, metabolism, and excretion of radiolabeled acoziborole, a potential novel treatment for human African trypanosomiasis, following single microtracer oral dose to humans” (Antimicrobial Agents and Chemotherapy, 2025)", "key": {"[1]": {"parameters": "method as in PMID 21738803", "conditions": "rats; cited from earlier work"}, "[2]": {"experiment": "Metabolite profiling and identification in pools of plasma, urine and feces (UPLC-MS, AMS)", "type": "in vivo, human", "experimental": "Individual pools of plasma (0–336 h, including time points at 1, 4, 9, 12, 24, 48, 72, 96, 120, 168, 240, and 336 h), urine (0–240 h, including time intervals 0–6, 6–12, 12–24, 24–48, 48–72, 72–96, 96–120, 120–168, 168–192, 192–216, and 216–240 h) and feces homogenates (0–240 h, including time intervals 0–6, 6–12, 12–24, 24–48, 48–72, 72–96, 96–120, 120–168, and 168–240 h) were prepared; for plasma this was done according to the method described in reference and for feces by using equal percentages per time point based on total volume. Subsequently, a pool per matrix was prepared by mixing equal volumes of each participant pool. In addition, a plasma pre-dose pool was prepared by mixing equal volumes of each pre-dose sample. For urine and feces, TNO blank pool was used to generate a pre-dose sample. Samples were stored below −18°C. Samples (100 µL plasma, 250 µL urine, and 200 mg feces) were pre-treated and injected onto an ultra-high performance liquid chromatography (UPLC)-MS system (Acquity UPLC system [Waters] coupled to a Q-Exactive [Thermo]; Acquity HSS C18 VanGuard 5 mm × 2.1 mm, 1.8 µm [Waters] pre-column and Acquity HSS C18 100 mm × 2.1 mm, 1.8 µm d.p. [Waters]). Fractions were collected and analyzed off-line by AMS. AMS analysis was performed on an AMS system, consisting of an elemental analyzer, a double gas interface, and a 1 MV multi-element AMS. All fecal homogenate sample analyzes were performed in triplicate. Plasma pre-dose and TNO blank urine and feces pools were used for background correction. The UPLC method qualification included determination of retention time stability and extraction recovery. Metabolites were tentatively assigned to fractions in which activity greater than the baseline was observed, based on retention time and structural information provided by DNDi. Presence of the metabolite was confirmed by accurate mass data from high-resolution mass spectrometric analysis."}, "[3]": {"system": "T.b. gambiense", "parameters": "method as in PMID 21738803", "conditions": "oral 5–25 mg/kg/day; acute and chronic infection; cited from earlier work"}, "[4]": {"target": "T1, CYP3A4 (Homo sapiens, UniProt P08684)", "T1 construct": "purchased", "T1 sequence (P08684 whole entry)": "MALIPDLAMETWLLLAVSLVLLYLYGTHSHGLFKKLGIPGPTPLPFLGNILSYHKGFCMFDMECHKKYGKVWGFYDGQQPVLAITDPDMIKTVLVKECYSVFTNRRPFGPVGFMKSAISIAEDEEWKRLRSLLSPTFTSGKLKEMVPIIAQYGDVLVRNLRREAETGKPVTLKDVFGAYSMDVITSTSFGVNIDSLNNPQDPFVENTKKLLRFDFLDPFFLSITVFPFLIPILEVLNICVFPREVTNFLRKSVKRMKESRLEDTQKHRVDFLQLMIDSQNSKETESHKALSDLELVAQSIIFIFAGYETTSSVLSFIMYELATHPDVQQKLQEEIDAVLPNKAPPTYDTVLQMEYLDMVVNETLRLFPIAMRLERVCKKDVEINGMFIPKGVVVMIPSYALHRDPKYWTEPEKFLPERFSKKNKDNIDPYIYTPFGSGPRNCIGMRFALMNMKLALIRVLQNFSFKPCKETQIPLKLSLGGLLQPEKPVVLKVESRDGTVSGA", "experiment": "Incubation with CYP450 recombinant enzymes (Bactosomes) and NADPH", "type": "in vitro ADME", "conditions": "1 µM"}, "[5]": {"experiment": "Plasma pharmacokinetics of acoziborole and SCYX-3109 by LC-MS/MS, phase I mass balance study", "type": "in vivo, human", "experimental": "This single-center, open-label, single group, non-randomized, single oral dose study was performed at Quotient Sciences Ltd (Ruddington, Nottingham, UK). Clinical trial authorization was obtained from the Medicines and Healthcare Products Regulatory Agency (UK). Approval for administration of [^14C]-acoziborole was obtained from an expert committee sponsored by the Department of Health and Social Care in the United Kingdom (Administration of Radioactive Substances Advisory Committee [ARSAC]), and from the ARSAC-accredited Quotient Sciences’ nuclear medicine practitioner. This study was approved by a local research ethics committee in the United Kingdom and was conducted in compliance with the Declaration of Helsinki and the International Conference on Harmonisation E6 Guideline for Good Clinical Practice. The study was registered in clinicaltrials.gov (NCT04270981) and in EudraCT (reference 2019-004059-35). Written informed consent was obtained from all participants before undertaking any study-related procedures.\nParticipants were admitted in the evening of the day before dosing (Day −1) and were dosed in the morning of Day 1, following an overnight fast from food and drink of a minimum of 9 h. They remained fasted until approximately 4 h post-dose, at which time lunch was provided. Participants remained resident in the clinic until up to 240 h after dosing (up to Day 11). […] However, due to the COVID-19 pandemic, instead of returning for the outpatient visits, participants were requested to perform home collection of feces for a 48-h period (i.e., Days 31–33, Days 59–61, Days 89–91, and Days 119–121). Collected samples were couriered to the clinical unit at the end of each collection period. A follow-up call took place 5–10 days after the final outpatient visit to ensure the well-being of participants.\nVenous blood samples were collected via an indwelling cannula or by venepuncture. A 12 mL sample was taken into heparinized glass tube and chilled on ice immediately before IP administration and 3 mL samples were taken at 1, 4, 9, 12, 24, 48, 72, 96, 120, 144, 168, and 240 h and on Days 15, 31, 59, 89, and 119 after IP administration. The first 0.5 mL of blood withdrawn via cannula was discarded. One aliquot of heparinized whole blood (1 mL) per time point was stored at or below −20°C for total radioactivity analysis. The remaining blood was centrifuged, and the harvested plasma was stored at approximately −20°C for bioanalysis or transferred (exactly 1 mL) into polypropylene tubes pre-filled with 5 µL formic acid. One plasma sample (0.5 mL) was used for metabolite profiling while another (0.5 mL) was used for parent drug and SCYX-3109 metabolite analysis. The remaining plasma was used for total radioactivity analysis.\nSGS Belgium (Wavre, Belgium) performed the analysis to determine acoziborole and SCYX-3109 concentrations, using validated bioanalytical assays with liquid chromatography with tandem mass spectrometry (LC-MS/MS) with a Supelco Ascentis Express C8, 2.7 µm, 50 × 2.1 mm I.D. separation column. In plasma, the lower limit of quantification (LLOQ) was 25 ng/mL for acoziborole and 10 ng/mL for SCYX-3109. In urine, the LLOQ was 10 ng/mL for both acoziborole and SCYX-3109.\nPK parameters were calculated based on actual sampling times using standard non-compartmental analysis and WinNonlin version 8.1 software (Certara, Princeton, NJ, USA).\nThe SCYX-3109 to parent ratios were calculated based on Cmax and AUC0–∞."}}, "note": "Where “and” joins values, the source holds several entries; their conditions need not be identical. Equal values may be shown once. Read-outs that look alike come from different tables or passages of the source.", "data": [{"smiles": "CC1(C)OB(O)c2cc(NC(=O)c3ccc(F)cc3C(F)(F)F)ccc21", "note": "[acoziborole]", "values": [{"measurement": "brain to plasma AUC0–24h ratio", "setting": "[1]", "result": 44, "unit": "%"}, {"measurement": "proportion of the dose excreted, urine and feces combined", "setting": "[2]; 0–240 h pools", "result": 34.2, "unit": "%"}, {"measurement": "abundance relative to dose, feces", "setting": "[2]; feces homogenates 0–240 h", "result": 33.6, "unit": "%"}, {"measurement": "relative abundance in radiochromatogram, feces homogenates pool", "setting": "[2]; feces homogenates 0–240 h", "result": 66.0, "unit": "%"}, {"measurement": "relative abundance in radiochromatogram (share of total radioactivity), plasma pool", "setting": "[2]; plasma pool 0–336 h, 960 mg single oral [14C]-acoziborole, listed as Parent (acoziborole)", "result": 95.1, "unit": "%"}, {"measurement": "abundance relative to dose, urine", "setting": "[2]; urine pool 0–240 h", "result": "0.6% and < 1%"}, {"measurement": "relative abundance in radiochromatogram, urine pool", "setting": "[2]; urine pool 0–240 h", "result": 7.6, "unit": "%"}, {"measurement": "abundance relative to dose, urine", "setting": "[2]; urine pool 0–240 h, listed as Parent (acoziborole)", "result": 0.6, "unit": "%"}, {"measurement": "effect on survival of infected mice", "setting": "[3]", "result": "significantly prolong survival"}, {"measurement": "outcome of oral treatment in infected mice", "setting": "[3]", "result": "curative"}, {"measurement": "metabolism by recombinant CYP3A4", "setting": "[4]", "result": "metabolized by"}, {"measurement": "mean t1/2 ratio of acoziborole to total radioactivity in blood", "setting": "[5]; 960 mg single oral dose", "result": 1.1}, {"measurement": "mean t1/2 ratio of acoziborole to total radioactivity in plasma", "setting": "[5]; 960 mg single oral dose", "result": 1.0}, {"measurement": "share of the radioactivity in plasma, based on AUC0–240h and AUC0–∞ ratios of acoziborole to total radioactivity", "setting": "[5]; 960 mg single oral dose", "result": "~100", "unit": "%"}, {"measurement": "t1/2 in plasma", "setting": "[5]; 960 mg single oral dose of acoziborole, N = 6, mean ± SD", "result": "272.1 ± 36.3", "unit": "h"}, {"measurement": "CL/F (apparent total body clearance)", "setting": "[5]; 960 mg single oral dose, plasma, N = 6, mean ± SD", "result": "0.2 ± 0.0", "unit": "L/h"}, {"measurement": "time first detected in plasma after dosing", "setting": "[5]; after 960 mg single oral [14C]-acoziborole", "result": 1, "unit": "h"}, {"measurement": "AUC(0-t)", "setting": "[5]; human, plasma, po, 960 mg, 960 mg single oral dose of acoziborole, N = 6, mean ± SD, read-out: AUC0–240h in plasma", "result": 2520, "unit": "µg·h/mL"}, {"measurement": "AUC(0-t)", "setting": "[5]; human, plasma, po, 960 mg, 960 mg single oral dose of acoziborole, N = 6, mean ± SD, read-out: AUC0–t in plasma", "result": 5920, "unit": "µg·h/mL"}, {"measurement": "Tmax", "setting": "[5]; human, plasma, po, 960 mg, 960 mg single oral dose of acoziborole, N = 6, mean ± SD, read-out: tmax in plasma", "result": "52 ± 9.8", "unit": "h"}, {"measurement": "AUC(0-inf)", "setting": "[5]; human, plasma, 960 mg single oral dose of acoziborole, N = 6, mean ± SD, read-out: AUC0–∞ in plasma", "result": 6450, "unit": "µg·h/mL"}, {"measurement": "half-life", "setting": "[5]; male, human, plasma, po, 960 mg, 960 mg single oral dose of acoziborole, N = 6, mean ± SD, read-out: t1/2 in plasma (converted)", "result": 272, "unit": "h"}, {"measurement": "Tmax", "setting": "[5]; male, human, plasma, po, 960 mg, 960 mg single oral dose, N = 6, read-out: individual tmax values in plasma", "result": "48 to 72", "unit": "h"}, {"measurement": "Tmax", "setting": "[5]; male, human, plasma, po, 960 mg, 960 mg single oral dose, N = 6, read-out: median tmax in plasma", "result": 48, "unit": "h"}, {"measurement": "Cmax", "setting": "[5]; male, human, plasma, 960 mg single oral dose of acoziborole, healthy males, N = 6, mean ± SD", "result": "14200 ± 1980", "unit": "ng/mL"}, {"measurement": "Vd/F", "setting": "[5]; male, human, 960 mg single oral dose, plasma, N = 6, mean ± SD, read-out: Vz/F (apparent volume of distribution during the terminal phase)", "result": "59.1 ± 7.3", "unit": "L"}]}]}
